Measurements taken from the supplement of paper PMC13380429.

How the values were obtained:
Settings in all cases: 72 h
Caco-2 [1] = assay: cell viability relative to DMSO; higher = less toxic
U2OS [2] = assay: as above
Calu-3 [3] = assay: as above
HepG2 [4] = assay: as above
Caco-2 [5] = assay: relative viability EC50 (midpoint between 100% and the lowest measured viability); higher = less toxic
U2OS [6] = assay: as above
Calu-3 [7] = assay: as above
HepG2 [8] = assay: as above
Caco-2 [9] = assay: drug sensitivity score (DSS) for viability; higher = more toxic; extreme values may be limits of the assay
U2OS [10] = assay: as above
Calu-3 [11] = assay: as above
HepG2 [12] = assay: as above
Vero E6 [13] = assay: cell viability relative to DMSO; higher = less toxic
Vero E6 [14] = assay: relative viability EC50 (midpoint between 100% and the lowest measured viability); higher = less toxic
Vero E6 [15] = assay: drug sensitivity score (DSS) for viability; higher = more toxic; extreme values may be limits of the assay

Row | SMILES | cell viability (Caco-2 [1]; 1 nM) | cell viability (Caco-2 [1]; 10 nM) | cell viability (Caco-2 [1]; 100 nM) | cell viability (Caco-2 [1]; 1000 nM) | cell viability (Caco-2 [1]; 10000 nM) | cell viability (U2OS [2]; 1 nM) | cell viability (U2OS [2]; 10 nM) | cell viability (U2OS [2]; 100 nM) | cell viability (U2OS [2]; 1000 nM) | cell viability (U2OS [2]; 10000 nM) | cell viability (Calu-3 [3]; 1 nM) | cell viability (Calu-3 [3]; 10 nM) | cell viability (Calu-3 [3]; 100 nM) | cell viability (Calu-3 [3]; 1000 nM) | cell viability (Calu-3 [3]; 10000 nM) | cell viability (HepG2 [4]; 1 nM) | cell viability (HepG2 [4]; 10 nM) | cell viability (HepG2 [4]; 100 nM) | cell viability (HepG2 [4]; 1000 nM) | cell viability (HepG2 [4]; 10000 nM) | relative viability EC50 (Caco-2 [5]) | relative viability EC50 (U2OS [6]) | relative viability EC50 (Calu-3 [7]) | relative viability EC50 (HepG2 [8]) | drug sensitivity score (Caco-2 [9]) | drug sensitivity score (U2OS [10]) | drug sensitivity score (Calu-3 [11]) | drug sensitivity score (HepG2 [12]) | cell viability (Vero E6 [13]; 1 nM) | cell viability (Vero E6 [13]; 10 nM) | cell viability (Vero E6 [13]; 100 nM) | cell viability (Vero E6 [13]; 1000 nM) | cell viability (Vero E6 [13]; 10000 nM) | relative viability EC50 (Vero E6 [14]) | drug sensitivity score (Vero E6 [15])
1 | O=C(N[C@@H]1CC[C@@H](c2cccc(F)c2F)CN(CC(F)(F)F)C1=O)N1CCC(n2c(=O)[nH]c3ncccc32)CC1 [telcagepant] | 104% | 96% | 102% | 90.2% | 86.7% | 98.5% | 99.1% | 104% | 97% | 97.6% | 94.7% | 98.1% | 95.7% | 105% | 108% | 102% | 101% | 96.9% | 98.8% | 93.2% | > 10 µM | > 10 µM | > 10 µM | > 10 µM | 0.6 | 0 | 0 | 0 |  |  |  |  |  |  | 
2 | CC(C)n1nccc1-c1ncccc1COc1cccc(O)c1C=O [voxelotor] | 101% | 95.4% | 96.5% | 104% | 84.6% | 102% | 97.1% | 96.5% | 95.8% | 94.8% | 100% | 92.4% | 102% | 98.8% | 101% | 98.1% | 109% | 96.9% | 109% | 101% | > 10 µM | > 10 µM | > 10 µM | > 10 µM | 0.2 | 0 | 0 | 0 |  |  |  |  |  |  | 
3 | C=CCNc1nc(NCC=C)nc(N2CCN(C(c3ccc(F)cc3)c3ccc(F)cc3)CC2)n1 [almitrine] | 91.3% | 79.4% | 102% | 88.2% | 87.8% | 102% | 96.1% | 99.4% | 94.6% | 97.9% | 111% | 96.2% | 96.5% | 92% | 98.2% | 98.8% | 92.6% | 80.9% | 77.9% | 61% | > 10 µM | > 10 µM | > 10 µM |  | 0.6 | 0 | 0 | 6.1 | 91.7% | 107% | 89.2% | 95.4% | 91.2% | > 10 µM | 0.4
4 | CNC[C@H](O)c1ccc(O)c(O)c1 [epinephrine] | 93.7% | 105% | 86.3% | 98.5% | 90% | 96.9% | 101% | 98.2% | 104% | 105% | 101% | 110% | 111% | 111% | 97.3% | 108% | 106% | 104% | 94.4% | 57.5% | > 10 µM | > 10 µM | > 10 µM |  | 0 | 0 | 0 | 3.1 | 93.3% | 89.7% | 95.1% | 89.6% | 111% | > 10 µM | 0
5 | O=C1NCCN1CCN1CCC(c2cn(-c3ccc(F)cc3)c3ccc(Cl)cc23)CC1 [sertindole] | 97.1% | 98.3% | 89.1% | 80.7% | 56.6% | 93.8% | 95.3% | 94.6% | 99.8% | 81% | 88.1% | 112% | 96.9% | 92.2% | 90% | 96.7% | 105% | 93.4% | 87.7% | 20.9% |  | > 10 µM | > 10 µM | 1.95 µM | 4.6 | 0.5 | 0.1 | 6.4 | 106% | 118% | 105% | 88.6% | 64.5% |  | 3.3
6 | CCC(O)(CC(N)=O)c1ccccc1 (stereo not given) [3-hydroxy-3-phenylpentanamide] | 96.1% | 106% | 102% | 100% | 95.8% | 95% | 99% | 98.3% | 104% | 99% | 98.2% | 106% | 89.4% | 103% | 108% | 95.9% | 93% | 107% | 100% | 98.1% | > 10 µM | > 10 µM | > 10 µM | > 10 µM | 0 | 0 | 0 | 0 |  |  |  |  |  |  | 
